# Measured values from patent US20150080461A1, “Composition Having Antiviral Activity against Flavivirus” (University Malaya, priority 2012, published 2015).
# Legend:
# DENV-2 (NGC strain) [1] = assay: Anti-adsorption activity against DENV-2 (FFURA, qRT-PCR); type: cell-based, Dengue virus type-2; conditions: added to cells simultaneously during infection, FFURA and qRT-PCR
# Experimental: In another experiment, Vero cells at ˜80% confluency were infected with 200 FFU of DENV-2 in the presence or absence of different concentrations of quercetin. The microplate was kept at 37° C. for one hour for virus adsorption. Then the cells were washed twice using sterile PBS and incubated for two hours at 37° C. Cells were then incubated for 4 days and foci formed was counted and DENV RNA copy number to indicate inhibition of virus adsorption was quantified using quantitative RT-PCR.
# (§1) In general, antiviral activity of quercein was evaluated by measuring the reduction in number of viral foci. Confluent Vero cell monolayers prepared in 24 wells cell culture microplates were used. […] The number of DENV-2 foci formed was counted under a stereomicroscope and the virus titer was expressed as Foci-Forming-Unit (FFU). The percentage of viral foci reduction (RF %) compared to untreated controls was calculated as follows: […]
# (§2) Reduction in the number of viral foci was further verified using quantitative real time polymerase chain reaction (qRT-PCR) amplification.
# (§3) Quantitative RT-PCR was performed to determine the effect of the compound on DENV replication by quantifying DENV-2 genomic RNA copy number. […] For absolute quantitation of the viral RNA, a standard curve was established with a serially diluted RNA extracted from DENV-2 stock with a known titer.
# DENV-2 (NGC strain) [2] = assay: Direct virucidal effect against DENV-2 (FFURA, qRT-PCR); type: cell-based, Dengue virus type-2
# Experimental: Direct virucidal effect of quercetin was investigated by incubating DENV-2 suspension containing 200 FFU with an equal volume of the different concentrations of quercetin for two hours at 37° C. Then, Vero cells were infected with the treated viral suspension in triplicates. At one hour adsorption at 37° C., cells were washed twice with PBS in order to remove unadsorbed viruses. The microplate was incubated at 37° C. for four days. Viral foci formed were counted and DENV RNA copy number to indicate direct virucidal effects was quantified using quantitative RT-PCR.
# as §1, with “foci.” for “foci. Confluent Vero cell monolayers prepared in 24 wells cell culture microplates were used.”
# as §2, §3
# DENV-2 (NGC strain) [3] = assay: Post-adsorption antiviral activity against intracellular replication of DENV-2 (FFURA, qRT-PCR); type: cell-based, Dengue virus type-2
# Experimental: Post-adsorption antiviral activity of quercetin against intracellular replication of DENV-2 was performed by inoculating 200 FFU of virus to each well containing monolayer of Vero cells. After adsorption of virus to the cells for one hour at 37° C., the cells were washed with PBS to remove the unadsorped viruses. Then, different concentrations of quercetin were added to the cells followed by four days incubation at 37° C. Viral foci formed were counted and DENV RNA copy number to indicate inhibition of virus replication was quantified using quantitative RT-PCR.
# (§4) In general, antiviral activity of quercein was evaluated by measuring the reduction in number of viral foci. Confluent Vero cell monolayers prepared in 24 wells cell culture microplates were used. Then the infected cells treated using the different treatment regime was overlaid with 1.5% of carboxy methyl cellulose (CMC) (Sigma-Aldrich, St. Louis, Mo., USA) containing EMEM. Viral foci were visualized using peroxidase-based foci staining assay four days post infection. The number of DENV-2 foci formed was counted under a stereomicroscope and the virus titer was expressed as Foci-Forming-Unit (FFU). The percentage of viral foci reduction (RF %) compared to untreated controls was calculated as follows: […]
# (§5) where, C is the mean of the number of foci for negative control well (without compound) and T is the mean of the number of foci in treated wells.
# as §2
# (§6) Quantitative RT-PCR was performed to determine the effect of the compound on DENV replication by quantifying DENV-2 genomic RNA copy number. Briefly, intracellular and extracellular DENV-2 RNAs were harvested from the DENV-infected Vero cells. Viral RNA was extracted using two types of RNA extraction kits (QlAamp Viral RNA mini kit and RNeasy mini kit) (Qiagen, Hilden, Germany). Quantitative RT-PCR assay was performed by adding 1 µl of extracted DENV RNA to the SensiMix SYBR green reagent (Quantace, Watford, United Kingdom) which contained 7.4 μl ddH2O, 10 μl 2× SensiMix One-Step, 0.4 μl 50× SYBR Green solution, 10 units of RNAse Inhibitor, 50 pmol of forward (DNF) and also reverse (D2R) primers. All samples were assayed in triplicate. Amplification was performed using the DNA Engine Opticon system (MJ Research/Bio-Rad, Hercules, Calif.) with the following cycling conditions: reverse transcription at 50° C. for 30 min, initial denaturation at 95° C. for 10 min, followed by 45 cycles of 95° C. for 15 sec, 59° C. for 30 sec and 72° C. for 30 sec. […] For absolute quantitation of the viral RNA, a standard curve was established with a serially diluted RNA extracted from DENV-2 stock with a known titer.
# [4] = MTT cytotoxicity assay on Vero cells; type: cell-based; conditions: African green monkey, read-out: CC50, cytotoxicity effect against Vero cells
# Experimental: C6/36 mosquito cell line derived from Aedes albopictus and Vero cell line were used. Both cell lines were maintained and propagated in Eagle's Minimum Essential Medium (EMEM) containing 10% fetal bovine serum. Cultured C6/36 and Vero cells were incubated at 28° C. and 37° C., respectively in 5% CO2 humidified chamber. At the time of virus propagation, serum concentration was reduced to 2%. Dengue virus type-2 (DENV-2) New Guinea C strain (NGC) was propagated using C6/36 cell line and harvested after CPE presentation on day seven post infection. After titration, viral stock was stored at -70° C. MTT (Dimethyl thiazolyl diphenyl tetrazolium salt) assay was performed to determine cytotoxicity of quercetin on Vero cells.
# DENV-2 (NGC strain) [5] = assay: Continuous treatment antiviral activity against DENV-2 (FFURA, qRT-PCR); type: cell-based, Dengue virus type-2
# Experimental: In separate experiment, to determine the antiviral activities of quercetin when used continuously, different concentrations of quercetin were added to the Vero cell monolayer five hours before virus infection. After five hours of pre-infection treatment, the cells were washed twice with sterile PBS and then 200 FFU of DENV-2 was inoculated to the cells and incubated at 37° C. for one hour. Infected cells were continuously incubated with the respective concentration of quercetin for four days post infection. Viral foci formed were counted and DENV RNA copy number to indicate inhibition of virus replication was quantified using quantitative RT-PCR.
# as §4, §5, §2
# as §6, with “triplicate.” for “triplicate. Amplification was performed using the DNA Engine Opticon system (MJ Research/Bio-Rad, Hercules, Calif.) with the following cycling conditions: reverse transcription at 50° C. for 30 min, initial denaturation at 95° C. for 10 min, followed by 45 cycles of 95° C. for 15 sec, 59° C. for 30 sec and 72° C. for 30 sec.”
structure (smiles),measurement,setting,value
"O=c1c(O)c(-c2ccc(O)c(O)c2)oc2cc(O)cc(O)c12 [quercetin, 2-(3,4-dihydroxyphenyl)-3,5,7-trihydroxy-4H-1-benzopyran-4-one]",anti-adsorption activity against DENV-2,DENV-2 (NGC strain) [1],~5%
same,decrease in copy number of DENV-2 RNA following direct treatment,"DENV-2 (NGC strain) [2]; different concentrations of compound, qRT-PCR",no significant decrease
same,direct virucidal activity against DENV-2,"DENV-2 (NGC strain) [2]; virus incubated with compound two hours at 37° C., foci",no significant direct virucidal activity
same,decrease of DENV-2 specific RNA production,"DENV-2 (NGC strain) [3]; 50 μg/mL quercetin, post-adsorption, qRT-PCR, vs non-treated infected cells",more than 67%±1
same,appearance of viral foci in treated cells,"DENV-2 (NGC strain) [3]; 50 μg/ml quercetin, foci staining, vs untreated dengue infected cells","small, less intensely stained and more diffused"
same,IC50,"DENV-2 (NGC strain) [3]; Dengue virus, DENV2, added post viral adsorption, Vero cells, FFURA",35.7 µg/mL
same,SI value,DENV-2 (NGC strain) [3]; post-adsorption assay,7.07
same,CC50,[4],252.6 ± 0.17 µg/mL
same,decrease of the number of DENV-2 foci,"DENV-2 (NGC strain) [5]; 50 μg/mL quercetin, continuous treatment of Vero cells, vs non-treated cells",70%±1.5
same,IC50,"DENV-2 (NGC strain) [5]; Dengue virus, DENV2, continuous treatment from 5 hours before infection up to 4 days post-infection, Vero cells, FFURA, read-out: IC50, anti-dengue activity",28.9 µg/mL
same,SI value,DENV-2 (NGC strain) [5]; continuous treatment,8.74
same,decrease of DENV-2 RNA production,"DENV-2 (NGC strain) [5]; continuous treatment, qRT-PCR",more than 75.7%±1.57
